Data set [1] has as its system Mus musculus. In words: Dose normalized AUC in mouse at 2 mg/kg, po. Format: ADME, organism-based. Particulars: in vivo.
The nature of data set [2]: Clearance in mouse plasma at 1 mg/kg, iv. Format: ADME, organism-based.
Data set [3] is described as follows: Half life in mouse at 1 mg/kg, iv. The data set is classed as ADME, organism-based. Particulars: in vivo.
A short description of data set [4]: Volume of distribution at steady state in mouse at 1 mg/kg, iv and at 2 mg/kg, po. Format: ADME, organism-based. Particulars: in vivo, read-out: Vdss.
A short description of data set [5]: Oral bioavailability in mouse at 2 mg/kg. The data set is classed as ADME, organism-based. Particulars: in vivo.
For data set [6], the system named is Mus musculus. In words: Decrease in glucose excursion in mouse at 10 mg/kg, po by Glucose tolerance test. Format: functional. Also on record: scale not given: the % may be the effect or the level left.
Data set [7] addresses T1, Somatostatin receptor type 3 (Homo sapiens, UniProt P32745).
Description: Antagonist activity at human somatostatin receptor type 3 assessed as inhibition of cAMP levels
Data set [8] deals with Mus musculus. Briefly: Decrease in glucose excursion in mouse at 0.1 mg/kg, po by Glucose tolerance test. The data set is classed as functional. Also on record: scale not given: the % may be the effect or the level left.
Data set [9] relates to Mus musculus. Briefly: Decrease in glucose excursion in mouse at 0.03 mg/kg, po by Glucose tolerance test. Format: functional. Set-up: scale not given: the % may be the effect or the level left.
Data set [10] deals with Mus musculus. In words: Decrease in glucose excursion in mouse at 0.3 mg/kg, po by Glucose tolerance test. Format: functional. Set-up: scale not given: the % may be the effect or the level left.
The subject of data set [11] is Mus musculus. In words: Decrease in glucose excursion in mouse at 1 mg/kg, po by Glucose tolerance test. Format: functional. Also on record: scale not given: the % may be the effect or the level left.
In data set [12] the test system is Mus musculus. Briefly: Decrease in glucose excursion in mouse at 3 mg/kg, po by Glucose tolerance test. Format: functional. Set-up: scale not given: the % may be the effect or the level left.
For data set [13], the target named is Somatostatin receptor type 1 (Homo sapiens, UniProt P30872). In words: Binding affinity to somatostatin receptor type 1 (unknown origin).
Somatostatin receptor type 1, sequence (P30872 whole entry): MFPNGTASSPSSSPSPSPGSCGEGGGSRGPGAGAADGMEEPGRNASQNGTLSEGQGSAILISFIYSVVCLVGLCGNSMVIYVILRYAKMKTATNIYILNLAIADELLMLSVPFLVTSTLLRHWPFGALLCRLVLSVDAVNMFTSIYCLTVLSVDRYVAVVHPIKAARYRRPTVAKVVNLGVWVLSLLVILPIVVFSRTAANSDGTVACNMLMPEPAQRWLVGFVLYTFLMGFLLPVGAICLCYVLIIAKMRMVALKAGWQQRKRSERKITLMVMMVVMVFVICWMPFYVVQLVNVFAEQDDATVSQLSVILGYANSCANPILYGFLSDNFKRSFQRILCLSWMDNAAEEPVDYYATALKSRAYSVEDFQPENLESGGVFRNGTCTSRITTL
The target of data set [14] is Somatostatin receptor type 2 (Homo sapiens, UniProt P30874). In words: Binding affinity to somatostatin receptor type 2 (unknown origin).
Somatostatin receptor type 2, sequence (P30874 whole entry): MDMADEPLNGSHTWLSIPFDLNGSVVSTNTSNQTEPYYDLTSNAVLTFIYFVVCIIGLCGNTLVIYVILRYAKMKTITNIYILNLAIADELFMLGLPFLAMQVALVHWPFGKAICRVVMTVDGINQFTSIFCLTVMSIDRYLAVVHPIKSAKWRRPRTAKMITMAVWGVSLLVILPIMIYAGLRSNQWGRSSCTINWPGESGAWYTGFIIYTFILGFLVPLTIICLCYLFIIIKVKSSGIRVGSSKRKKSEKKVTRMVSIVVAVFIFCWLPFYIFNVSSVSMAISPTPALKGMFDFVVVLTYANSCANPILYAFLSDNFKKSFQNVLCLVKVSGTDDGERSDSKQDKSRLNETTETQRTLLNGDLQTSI
The target in data set [15] is Somatostatin receptor type 4 (Homo sapiens, UniProt P31391). Briefly: Binding affinity to somatostatin receptor type 4 (unknown origin).
Somatostatin receptor type 4, sequence (P31391 whole entry): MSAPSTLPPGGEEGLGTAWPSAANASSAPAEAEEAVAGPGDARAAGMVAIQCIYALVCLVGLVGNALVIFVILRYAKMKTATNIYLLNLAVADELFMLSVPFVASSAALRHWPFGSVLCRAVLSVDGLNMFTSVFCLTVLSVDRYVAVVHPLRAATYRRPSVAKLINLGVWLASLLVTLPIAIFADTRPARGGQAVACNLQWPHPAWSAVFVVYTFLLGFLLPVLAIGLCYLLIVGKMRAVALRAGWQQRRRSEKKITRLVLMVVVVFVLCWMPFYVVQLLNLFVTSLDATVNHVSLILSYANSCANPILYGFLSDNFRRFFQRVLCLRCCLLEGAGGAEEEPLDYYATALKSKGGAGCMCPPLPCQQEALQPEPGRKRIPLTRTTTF
The target of data set [16] is Somatostatin receptor type 5 (Homo sapiens, UniProt P35346). Briefly: Binding affinity to somatostatin receptor type 5 (unknown origin).
Somatostatin receptor type 5, sequence (P35346 whole entry): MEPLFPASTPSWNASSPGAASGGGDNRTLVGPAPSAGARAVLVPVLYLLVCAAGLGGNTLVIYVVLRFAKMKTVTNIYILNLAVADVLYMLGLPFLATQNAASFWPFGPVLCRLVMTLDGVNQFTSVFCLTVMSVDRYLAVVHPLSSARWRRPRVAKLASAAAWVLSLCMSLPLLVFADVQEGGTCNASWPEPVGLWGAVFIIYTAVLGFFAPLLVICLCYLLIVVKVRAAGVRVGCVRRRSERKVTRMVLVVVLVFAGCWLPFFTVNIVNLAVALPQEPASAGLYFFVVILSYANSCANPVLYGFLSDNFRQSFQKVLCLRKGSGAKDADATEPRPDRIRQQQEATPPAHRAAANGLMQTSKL
Data set [17] is described as follows: Clearance in mouse plasma at 4 mg/kg, iv.
Data set [18] is described as follows: Half life in mouse at 4 mg/kg, iv. Particulars: in vivo.
Data set [19] can be described thus: Volume of distribution at steady state in mouse at 4 mg/kg, iv and at 10 mg/kg, po. Particulars: in vivo.
Data set [20] deals with Voltage-gated inwardly rectifying potassium channel KCNH2 (Homo sapiens, UniProt Q12809). In words: Binding affinity to human ERG.
Voltage-gated inwardly rectifying potassium channel KCNH2, sequence (Q12809 whole entry): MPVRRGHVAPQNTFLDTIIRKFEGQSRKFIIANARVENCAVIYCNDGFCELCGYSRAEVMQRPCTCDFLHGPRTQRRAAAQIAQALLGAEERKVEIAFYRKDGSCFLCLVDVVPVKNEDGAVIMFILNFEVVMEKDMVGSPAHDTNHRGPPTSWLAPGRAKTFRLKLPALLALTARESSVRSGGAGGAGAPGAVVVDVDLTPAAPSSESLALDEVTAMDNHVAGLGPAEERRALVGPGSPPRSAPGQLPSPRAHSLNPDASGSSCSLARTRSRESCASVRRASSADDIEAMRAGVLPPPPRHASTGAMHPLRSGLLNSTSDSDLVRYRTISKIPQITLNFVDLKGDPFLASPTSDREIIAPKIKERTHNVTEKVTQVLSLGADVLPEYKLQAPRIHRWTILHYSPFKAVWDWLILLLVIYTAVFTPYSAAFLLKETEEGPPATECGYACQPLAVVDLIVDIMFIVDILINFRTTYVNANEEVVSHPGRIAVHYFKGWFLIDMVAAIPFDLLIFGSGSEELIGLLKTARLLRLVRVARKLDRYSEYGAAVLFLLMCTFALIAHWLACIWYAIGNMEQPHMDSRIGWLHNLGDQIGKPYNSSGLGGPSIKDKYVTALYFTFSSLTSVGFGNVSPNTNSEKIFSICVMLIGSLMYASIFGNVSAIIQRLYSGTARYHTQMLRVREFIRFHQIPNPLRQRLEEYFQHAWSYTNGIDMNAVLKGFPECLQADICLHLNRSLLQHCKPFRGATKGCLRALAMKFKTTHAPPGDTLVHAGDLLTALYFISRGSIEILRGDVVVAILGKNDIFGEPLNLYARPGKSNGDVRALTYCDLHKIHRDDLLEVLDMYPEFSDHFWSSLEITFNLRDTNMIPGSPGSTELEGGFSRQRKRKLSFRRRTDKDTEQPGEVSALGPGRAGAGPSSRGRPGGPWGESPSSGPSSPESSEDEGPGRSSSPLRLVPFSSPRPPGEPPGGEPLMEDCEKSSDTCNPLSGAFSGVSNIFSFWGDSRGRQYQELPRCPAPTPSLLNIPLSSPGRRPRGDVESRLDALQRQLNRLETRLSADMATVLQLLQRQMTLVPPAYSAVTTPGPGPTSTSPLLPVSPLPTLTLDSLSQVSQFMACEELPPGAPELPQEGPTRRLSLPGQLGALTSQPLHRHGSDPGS
For data set [21], the system named is Rattus norvegicus. In words: Half life in rat at 1 mg/kg, iv. The settings on record: in vivo.
Data set [22] concerns Rattus norvegicus. Briefly: Volume of distribution at steady state in rat at 1 mg/kg, iv and at 2 mg/kg, po. The settings on record: in vivo.
In data set [23] the target is T1, Somatostatin receptor type 3. The source holds these as a separate data set.
Description: Binding affinity to human somatostatin receptor type 3
The species named for data set [24] is Mus musculus. Particulars: in vivo, po, 10 mg/kg.
Data set [25] is filed under the species Rattus norvegicus. Particulars: in vivo, po, 2 mg/kg.
Data set [26] in a line: in vivo. The settings on record: mouse, po, 10 mg/kg.
Data set [27] can be described thus: in vivo. Particulars: rat, po, 2 mg/kg.

SMILES strings stand for the structures.

T1 sequence (P32745 whole entry): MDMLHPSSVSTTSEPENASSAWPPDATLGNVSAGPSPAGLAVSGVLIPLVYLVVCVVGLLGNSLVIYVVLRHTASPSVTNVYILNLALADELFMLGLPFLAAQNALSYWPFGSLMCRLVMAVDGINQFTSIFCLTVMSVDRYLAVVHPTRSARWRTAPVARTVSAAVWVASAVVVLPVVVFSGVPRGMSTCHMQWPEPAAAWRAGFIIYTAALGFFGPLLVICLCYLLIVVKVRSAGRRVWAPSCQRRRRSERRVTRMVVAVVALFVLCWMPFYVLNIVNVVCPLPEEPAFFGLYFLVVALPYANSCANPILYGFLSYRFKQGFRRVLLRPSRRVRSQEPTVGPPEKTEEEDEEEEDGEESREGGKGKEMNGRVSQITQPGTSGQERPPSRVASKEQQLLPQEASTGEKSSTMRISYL

On to `Fc1ccc(-c2c[nH]c([C@H]3Cc4c([nH]c5ccccc45)[C@@H](C4CCOCC4)N3)n2)cc1`, for which, in the data set with Mus musculus [1], the AUC/dose was determined as 5.58 µM·h/mg/kg. In [2], this compound returned a clearance of 5.9 mL/min/kg. In data set [3], the half-life was 3.6 h. Also, the Vd in data set [4] worked out at 1.8 L/kg. In addition, the bioavailability in [5] was 82%. In addition, the Activity in the data set with Mus musculus [6] is given as 79%. This compound also returned an EC50 in [7] of 5.7 nM.

Regarding `Cc1nc([C@]2(c3cnn(C)c3)N[C@@H](c3nc(-c4ccc(F)cn4)c[nH]3)Cc3c2[nH]c2ccccc32)no1`, the Activity with Mus musculus [8] stood at 46%; with Mus musculus [9], 40%; in the data set on Mus musculus [10], 57%; in the data set with Mus musculus [11], 87%; in the data set on Mus musculus [12] it was 93%. The IC50 in data set [13] is 2300 nM; in data set [14], over 10000 nM; in data set [15], 3200 nM; in data set [16], 10000 nM.

In turn, `CC1(c2nc(-c3ccccc3)c[nH]2)Cc2c([nH]c3ccccc23)C(C2CCOCC2)N1` (stereo in doubt; 6a) displayed a clearance in data set [17] of 77 mL/min/kg. In data set [18], this compound gave a half-life of 1.3 h. In addition, the Vd in data set [19] is 4.6 L/kg. Moreover, the half-inhibitory concentration (IC50) was found to be 2180 nM in data set [20] and 23 nM in data set [23]. Moreover, the t1/2 in the data set with Rattus norvegicus [21] turned out to be 0.96 h. The Vdss with Rattus norvegicus [22] came out at 13.2 L/kg. The same compound came in with an EC50 in data set [7] of 17 nM. Moreover, the AUC/dose came to 0.31 µM·h/mg/kg in the data set listed under Mus musculus [24] and 0.28 µM·h/mg/kg in the data set filed under Rattus norvegicus [25]. For the same compound, the bioavailability stood at 58% in “in vivo [26]” and 49% in the data set “in vivo [27]”.

The record behind these values is ChEMBL document CHEMBL3774320, “SAR exploration at the C-3 position of tetrahydro-β-carboline sstr3 antagonists” (Bioorg Med Chem Lett, 2016).
